Source: the NIST ThermoML archive (doi:10.1021/je800609u)
Numbers after ± are expanded uncertainties.

Assays:
[1] = refractive index (Na D-line) (dimensionless); mn = molality of the nth substance listed, in mol/kg; conditions: 101 kPa, Liquid
[2] = osmotic coefficient (dimensionless); mn = molality of the nth substance listed, in mol/kg; conditions: Liquid, vapor pressure osmometery method

CCCCn1cc[n+](C)c1.[I-] [1-butyl-3-methylimidazolium iodide] + O
Conditions | osmotic coefficient, 298.15 K | osmotic coefficient, 308.15 K | osmotic coefficient, 318.15 K | osmotic coefficient, 328.15 K | refractive index, 298.15 K | refractive index, 308.15 K | refractive index, 318.15 K | refractive index, 328.15 K
[1], m1 = 0.0133 | – | – | – | – | 1.3331 ± 0.0006 | 1.3321 ± 0.0006 | 1.3305 ± 0.0006 | 1.3285 ± 0.0006
[1], m1 = 0.0293 | – | – | – | – | 1.3336 ± 0.0006 | 1.3325 ± 0.0006 | 1.331 ± 0.0006 | 1.3289 ± 0.0006
[1], m1 = 0.0442 | – | – | – | – | 1.3343 ± 0.0006 | 1.333 ± 0.0006 | 1.3316 ± 0.0006 | 1.3293 ± 0.0006
[1], m1 = 0.0505 | – | – | – | – | 1.3346 ± 0.0006 | 1.3334 ± 0.0006 | 1.3317 ± 0.0006 | 1.3298 ± 0.0006
[1], m1 = 0.0786 | – | – | – | – | 1.3356 ± 0.0006 | 1.3344 ± 0.0006 | 1.3328 ± 0.0006 | 1.331 ± 0.0006
[1], m1 = 0.0995 | – | – | – | – | 1.3365 ± 0.0006 | 1.3353 ± 0.0006 | 1.3336 ± 0.0006 | 1.3315 ± 0.0006
[1], m1 = 0.1307 | – | – | – | – | 1.3376 ± 0.0006 | 1.3363 ± 0.0006 | 1.3347 ± 0.0006 | 1.3329 ± 0.0006
[1], m1 = 0.1782 | – | – | – | – | 1.3395 ± 0.0006 | 1.3381 ± 0.0006 | 1.3364 ± 0.0006 | 1.3347 ± 0.0006
[1], m1 = 0.216 | – | – | – | – | 1.341 ± 0.0006 | 1.3397 ± 0.0006 | 1.338 ± 0.0006 | 1.3359 ± 0.0006
[1], m1 = 0.3257 | – | – | – | – | 1.3449 ± 0.0006 | 1.3435 ± 0.0006 | 1.3418 ± 0.0006 | 1.3404 ± 0.0006
[1], m1 = 0.4065 | – | – | – | – | 1.3478 ± 0.0006 | 1.3467 ± 0.0006 | 1.3447 ± 0.0006 | 1.3433 ± 0.0006
[1], m1 = 0.5184 | – | – | – | – | 1.3519 ± 0.0006 | 1.3503 ± 0.0006 | 1.3487 ± 0.0006 | 1.3464 ± 0.0006
[1], m1 = 0.6452 | – | – | – | – | 1.356 ± 0.0006 | 1.3548 ± 0.0006 | 1.3529 ± 0.0006 | 1.3507 ± 0.0006
[1], m1 = 0.7509 | – | – | – | – | 1.3595 ± 0.0006 | 1.358 ± 0.0006 | 1.3561 ± 0.0006 | 1.3541 ± 0.0006
[1], m1 = 0.8786 | – | – | – | – | 1.3635 ± 0.0006 | 1.362 ± 0.0006 | 1.36 ± 0.0006 | 1.3578 ± 0.0006
[1], m1 = 1.154 | – | – | – | – | 1.3714 ± 0.0006 | 1.3701 ± 0.0006 | 1.368 ± 0.0006 | 1.3657 ± 0.0006
[1], m1 = 1.837 | – | – | – | – | 1.3893 ± 0.0006 | 1.3876 ± 0.0006 | 1.3853 ± 0.0006 | 1.3831 ± 0.0006
[1], m1 = 2.589 | – | – | – | – | 1.4054 ± 0.0006 | 1.4035 ± 0.0006 | 1.4012 ± 0.0006 | 1.3986 ± 0.0006
[2], m1 = 0.0133 | 0.833 ± 0.013 | 0.856 ± 0.013 | 0.899 ± 0.013 | 0.91 ± 0.012 | – | – | – | –
[2], m1 = 0.0293 | 0.821 ± 0.014 | 0.843 ± 0.013 | 0.888 ± 0.013 | 0.889 ± 0.013 | – | – | – | –
[2], m1 = 0.0442 | 0.792 ± 0.014 | 0.821 ± 0.014 | 0.88 ± 0.013 | 0.885 ± 0.013 | – | – | – | –
[2], m1 = 0.0505 | 0.784 ± 0.014 | 0.814 ± 0.014 | 0.869 ± 0.013 | 0.878 ± 0.013 | – | – | – | –
[2], m1 = 0.0786 | 0.766 ± 0.015 | 0.788 ± 0.014 | 0.845 ± 0.013 | 0.861 ± 0.013 | – | – | – | –
[2], m1 = 0.0995 | 0.761 ± 0.015 | 0.78 ± 0.014 | 0.819 ± 0.014 | 0.833 ± 0.013 | – | – | – | –
[2], m1 = 0.1307 | 0.751 ± 0.015 | 0.765 ± 0.015 | 0.782 ± 0.014 | 0.807 ± 0.014 | – | – | – | –
[2], m1 = 0.1782 | 0.711 ± 0.016 | 0.734 ± 0.015 | 0.758 ± 0.015 | 0.778 ± 0.014 | – | – | – | –
[2], m1 = 0.216 | 0.697 ± 0.016 | 0.714 ± 0.016 | 0.74 ± 0.015 | 0.768 ± 0.015 | – | – | – | –
[2], m1 = 0.3257 | 0.644 ± 0.017 | 0.662 ± 0.017 | 0.706 ± 0.016 | 0.715 ± 0.016 | – | – | – | –
[2], m1 = 0.4065 | 0.613 ± 0.018 | 0.645 ± 0.017 | 0.682 ± 0.016 | 0.69 ± 0.016 | – | – | – | –
[2], m1 = 0.5184 | 0.596 ± 0.019 | 0.626 ± 0.018 | 0.644 ± 0.017 | 0.662 ± 0.017 | – | – | – | –
[2], m1 = 0.6452 | 0.564 ± 0.02 | 0.581 ± 0.019 | 0.61 ± 0.018 | 0.619 ± 0.018 | – | – | – | –
[2], m1 = 0.7509 | 0.554 ± 0.02 | 0.566 ± 0.019 | 0.574 ± 0.019 | 0.586 ± 0.019 | – | – | – | –
[2], m1 = 0.8786 | 0.528 ± 0.021 | 0.553 ± 0.02 | 0.558 ± 0.02 | 0.569 ± 0.019 | – | – | – | –
[2], m1 = 1.154 | 0.47 ± 0.022 | 0.501 ± 0.021 | 0.521 ± 0.021 | 0.528 ± 0.021 | – | – | – | –
[2], m1 = 1.837 | 0.405 ± 0.024 | 0.413 ± 0.024 | 0.429 ± 0.023 | 0.45 ± 0.023 | – | – | – | –
[2], m1 = 2.589 | 0.362 ± 0.026 | 0.38 ± 0.025 | 0.387 ± 0.025 | 0.408 ± 0.024 | – | – | – | –
